Where a name gives a salt, the structure may show the parent alone.

Our source for the Solubility values is US7186863B2, “Sertraline compositions” (TransForm Pharmaceuticals, Inc., priority 2003, dated 2007).

This series is described as follows: Solubility of sertraline salt forms. To be noted: medium not given; aqueous solubility.
As to “sertraline mesylate [Sertraline mesylate Form C]”, the Solubility stood at 4200 µg/mL.
In the case of `CN[C@H]1CC[C@@H](c2ccc(Cl)c(Cl)c2)c2ccccc21` [sertraline HBr salt, sertraline HBr], the Solubility was found to be 600 µg/mL.
`CN[C@H]1CC[C@@H](c2ccc(Cl)c(Cl)c2)c2ccccc21` [Sertraline lactate Form A, sertraline lactate]: the Solubility stood at 1900 µg/mL.
Regarding “sertraline besylate [Sertraline besylate salt]”, the Solubility is 300 µg/mL.
